In the supplement of paper PMC5908809:

Experiments:
Assay in all cases: relative IC50 (inflection point of fitted viability curve, relative to fitted max inhibition); higher = less sensitive
Conditions in all cases: 72 h
DERL-7 (IL-2 2.5 ng/mL) = test system: DERL-7 (IL-2 2.5 ng/mL)
Procedure: (§1)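 Drug sensitivity and resistance testing: 5 concentrations over a 10,000-fold range, 72 h at 37 °C, viability by CellTiter-Glo normalised to DMSO and benzethonium chloride controls. IC50 is the inflection point of a logistic fit (min fixed at 0, max fitted), so it is relative to the fitted maximal inhibition. Kept only where fitted max inhibition is at least 50%.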

KAI3 (IL-2 2.5 ng/mL) = test system: KAI3 (IL-2 2.5 ng/mL)
Procedure: as §1

KHYG-1 (IL-2 2.5 ng/mL) = test system: KHYG-1 (IL-2 2.5 ng/mL)
Procedure: as §1

NK-92 (IL-2 2.5 ng/mL) = test system: NK-92 (IL-2 2.5 ng/mL)
Procedure: as §1

NK-YS (IL-2 2.5 ng/mL) = test system: NK-YS (IL-2 2.5 ng/mL)
Procedure: as §1

NKL (IL-2 2.5 ng/mL) = test system: NKL (IL-2 2.5 ng/mL)
Procedure: as §1

SNK-6 (IL-2 2.5 ng/mL) = test system: SNK-6 (IL-2 2.5 ng/mL)
Procedure: as §1

YT (IL-2 2.5 ng/mL) = test system: YT (IL-2 2.5 ng/mL)
Procedure: as §1

[1] = test system: normal primary NK cells, pool 1 (3 donors) (IL-2 2.5 ng/mL)
Procedure: as §1

[2] = test system: normal primary NK cells, pool 1 (3 donors), resting (IL-2 0 ng/mL)
Procedure: as §1

IMC-1 (IL-2 20 ng/mL) = test system: IMC-1 (IL-2 20 ng/mL)
Procedure: as §1

[3] = test system: normal primary NK cells, pool 2 (3 donors) (IL-2 2.5 ng/mL)
Procedure: as §1

[4] = test system: normal primary NK cells, pool 3 (3 donors) (IL-2 2.5 ng/mL)
Procedure: as §1

SMILES | relative IC50 (DERL-7 (IL-2 2.5 ng/mL)) | relative IC50 (KAI3 (IL-2 2.5 ng/mL)) | relative IC50 (KHYG-1 (IL-2 2.5 ng/mL)) | relative IC50 (NK-92 (IL-2 2.5 ng/mL)) | relative IC50 (NK-YS (IL-2 2.5 ng/mL)) | relative IC50 (NKL (IL-2 2.5 ng/mL)) | relative IC50 (SNK-6 (IL-2 2.5 ng/mL)) | relative IC50 (YT (IL-2 2.5 ng/mL)) | relative IC50 [1] | relative IC50 [2] | relative IC50 (IMC-1 (IL-2 20 ng/mL)) | relative IC50 [3] | relative IC50 [4]
COc1cc(C(=O)O)ccc1NC(=O)[C@@H]1N[C@@H](CC(C)(C)C)[C@](C#N)(c2ccc(Cl)cc2F)[C@H]1c1cccc(Cl)c1F [RG7388] | 97 nM | 39.1 nM | 3560 nM | 2120 nM | 86.3 nM | 2450 nM | 30.2 nM | 209 nM | 132 nM | 29.7 nM |  |  | 
O=C(O)C1(C(=O)O)CCC1.[NH2-].[NH2-].[Pt+2] [Carboplatin] |  |  |  |  |  |  |  |  |  |  | 8070 nM | 16600 nM | 16000 nM
C[C@@H]1CCN(C(=O)CC#N)C[C@@H]1N(C)c1ncnc2[nH]ccc12 [Tofacitinib] | 99.5 nM | 42.3 nM | 41 nM | 141 nM | 101 nM | 33.1 nM | 78 nM | 336 nM | 75 nM |  | 616 nM | 95.5 nM | 204 nM
CS(=O)(=O)OCCCCOS(C)(=O)=O [Busulfan] |  | 24600 nM | 26600 nM | 36400 nM | 29600 nM | 27300 nM | 15800 nM |  |  |  | 26900 nM | 35600 nM | 
CCN1CCN(Cc2ccc(Nc3ncc(F)c(-c4cc(F)c5nc(C)n(C(C)C)c5c4)n3)nc2)CC1 [Abemaciclib] | 130 nM |  | 236 nM |  | 446 nM |  |  |  |  | > 2500 nM | 978 nM | 743 nM | 
CN1CCC(COc2cnc(-c3cccc(Cn4nc(-c5cccc(C#N)c5)ccc4=O)c3)nc2)CC1 |  | > 1000 nM |  |  | > 1000 nM |  |  |  |  |  | > 1000 nM |  | > 1000 nM
Nc1ncn([C@@H]2O[C@H](CO)[C@@H](O)[C@H]2O)c(=O)n1 [Azacitidine] | 1440 nM | 1150 nM | 1520 nM | 1470 nM | 1600 nM | 3860 nM | 384 nM |  |  |  | 3620 nM |  | 
COc1cc(N2CCC(N3CCN(C)CC3)CC2)ccc1Nc1ncnc(Nc2ccccc2S(=O)(=O)C(C)C)n1 [ASP3026] | 3110 nM |  | 1900 nM |  |  |  |  | 1830 nM |  |  | 3350 nM |  | 
C[C@@]1(C(=O)Nc2ccc(F)nc2)CCCN1c1nc(Nc2cc(C3CC3)n[nH]2)c2cccn2n1 | 290 nM |  | 1150 nM | 617 nM | 412 nM |  | 630 nM | 904 nM |  | 3420 nM | 2850 nM |  | 
C[C@@H](Nc1cc(F)cc(F)c1)c1cc(C(=O)N(C)C)cc2c(=O)cc(N3CCOCC3)oc12 [AZD-8186] |  |  |  |  |  | > 1000 nM |  |  |  |  | > 1000 nM |  | > 1000 nM
O=P1(N(CCCl)CCCl)NCCCO1 (stereo unspecified) [Cyclophosphamide] |  |  | > 40000 nM |  |  |  |  | > 40000 nM |  | 5790 nM | > 40000 nM |  | 
Cc1ccccc1C(C(=O)NC1CCCCC1)N(C(=O)Cn1ccnc1C)c1cccc(F)c1 (stereo unspecified) [AGI-5198] |  |  |  |  |  |  |  |  | > 10000 nM |  |  |  | 
CN1CCN(c2ccc3nc(-c4c(N)c5c(F)cccc5[nH]c4=O)[nH]c3c2)CC1 [Dovitinib] |  |  |  |  |  | 1900 nM | > 10000 nM |  |  | 1860 nM | > 10000 nM |  | 
COc1cc(C(=O)O)ccc1NC(=O)[C@@H]1N[C@@H](CC(C)(C)C)[C@](C#N)(c2ccc(Cl)cc2F)[C@H]1c1cccc(Cl)c1F [Idasanutlin] |  |  |  |  |  |  |  |  |  |  |  | 197 nM | 265 nM
COc1cc2nccc(Oc3ccc(NC(=O)Nc4cc(C)on4)c(Cl)c3)c2cc1OC [Tivozanib] | 2780 nM |  | 1630 nM | 319 nM | 1750 nM |  | 799 nM | 1490 nM |  | 1520 nM |  |  | 
CC(C)(O)CC(=O)NCCn1ccc2ncnc(Nc3ccc(Oc4cccc(C(F)(F)F)c4)c(Cl)c3)c21 [TAK-285] |  |  |  |  |  | > 2500 nM |  |  |  |  | > 2500 nM | > 2500 nM | > 2500 nM
CCc1cncnc1N1CCN(Cc2nc3ccc(C(F)(F)F)cc3[nH]2)CC1 |  |  |  | 1460 nM |  | 1840 nM |  |  | 1790 nM | 1820 nM | 2140 nM |  | 
Nc1cc(C(F)(F)F)c(-c2cc(N3CCOCC3)nc(N3CCOCC3)n2)cn1 [Buparlisib] | 1070 nM | 887 nM | 781 nM | 734 nM | 520 nM | 269 nM | 42.9 nM | 1210 nM |  |  | 3900 nM |  | 
CCn1c(=O)c(-c2cc[nH]n2)cc2c(C)nc(N)nc21 [Voxtalisib] | 457 nM | 818 nM | 1640 nM | 685 nM | 1340 nM | 880 nM | 3190 nM | 1110 nM |  |  |  |  | 
O=c1[nH]cc(F)c(=O)[nH]1 [Fluorouracil] | 2490 nM |  | 2010 nM | 526 nM | 1040 nM | 1230 nM | 1190 nM | 820 nM |  |  |  |  | 
O=C(c1ccc(OCCN2CCCCC2)cc1)c1c(-c2ccc(O)cc2)sc2cc(O)ccc12 [Raloxifene] | 1740 nM | 2770 nM | 1740 nM | 3290 nM |  | 1680 nM | 4500 nM | 3070 nM |  |  |  |  | 
CC(=O)Nc1cccc(-n2c(=O)n(C3CC3)c(=O)c3c(Nc4ccc(I)cc4F)n(C)c(=O)c(C)c32)c1 [Trametinib] |  |  | 4.89 nM | > 250 nM |  | 2.51 nM |  |  |  |  | > 250 nM |  | > 250 nM
COc1cc2c(Oc3ccc4[nH]c(C)cc4c3F)ncnc2cc1OCCCN1CCCC1 [Cediranib] |  |  |  |  |  |  |  |  |  |  |  |  | > 1000 nM
O=C1CN2Cc3c(ccc(Cl)c3Cl)N=C2N1 [Anagrelide] |  |  |  |  |  |  |  |  |  |  |  |  | > 10000 nM
COC1=CC(c2cc3ccccc3[nH]2)=N/C1=C\c1[nH]c(C)cc1C [Obatoclax] |  |  |  | 449 nM |  | 247 nM |  |  |  | 1880 nM |  |  | 
O=C(Cc1ccc(-c2ccc(OCCN3CCOCC3)cc2)cn1)NCc1ccccc1 [KX2-391] | 28.1 nM | 28.1 nM | 30.3 nM | 12.3 nM | 26.1 nM | 27.8 nM | 5.46 nM | 23 nM |  |  | 34.4 nM |  | 
CNC(=O)c1ccc(-c2cnc3ncc(Cc4ccc5ncccc5c4)n3n2)cc1F [NVP-INC280] |  |  |  |  |  |  |  |  | > 1000 nM |  |  |  | > 1000 nM
FC(F)c1nc2ccccc2n1-c1nc(N2CCOCC2)nc(N2CCOCC2)n1 [ZSTK474] | 110 nM | 290 nM |  | 31.2 nM | 655 nM | 436 nM | 832 nM | 262 nM |  |  |  |  | 
CC(=O)O[C@H]1C(=O)[C@@]2(C)[C@H]([C@H](OC(=O)c3ccccc3)[C@]3(O)C[C@H](OC(=O)[C@H](O)[C@@H](NC(=O)c4ccccc4)c4ccccc4)C(C)=C1C3(C)C)[C@]1(OC(C)=O)CO[C@@H]1C[C@@H]2O [Paclitaxel] | 3.25 nM | 2.92 nM | 6.15 nM | 22 nM | 4.26 nM | 4.61 nM | 3.77 nM | 5.42 nM |  |  | 3.31 nM |  | 
